Source: patent US6902903B1, “Helicobacter pylori diagnostics” (Chiron Corporation, priority 1996, dated 2005)
Read-outs that look alike come from different tables or passages of the source.

Experiments:
H. pylori infection [1] = conditions: individuals undergoing antibiotic regimen for H. pylori infection; cited from earlier work
H. pylori infection [2] = assay: Antibiotic therapy of H. pylori infection, response monitored by SIA; type: in vivo, Helicobacter pylori; conditions: individuals undergoing antibiotic regimen, determined with the SIA
Experimental: For the immunoblot assay, strips were processed in a batch fashion with 30 strips per batch. All steps were performed at room temperature. Each strip was numbered and then placed in a separate tube to which was added 1 ml of diluent (phosphate-buffered saline (PBS) with bovine protein stabilizers and detergents, 0.1% sodium azide and 0.05% gentamicin sulfate as preservatives) and 30 μl of a serum sample from an individual known to be infected with H. pylori Type I, suspected of being infected with H. pylori Type I or a control subject, was applied. The tubes were rocked gently for 4 h, the solution removed by aspiration, and 1 ml of fresh diluent was added to each tube. The tubes were rocked for 30 minutes, the solution removed by aspiration and 1 ml of wash buffer made from wash buffer concentrate (50×) (phosphate-buffered detergent solution with 0.01% thimerosal as a preservative) was added to each tube. The contents of each tube were emptied into a single wash vessel and the strips were washed by swirling for 20 seconds. The wash buffer was decanted and 30 ml of fresh buffer added and the process repeated. […] Strips were then read within 3 h of drying. […] The lysate and VacA and CagA bands are then scored from 0 to 4+according to how their band intensity compares to that of the IgG control bands. […]

[3] = system: H. pylori antibodies in serum sample; assay: H. pylori strip immunoblot assay (SIA), band reactivity of immobilized antigens with serum samples; type: binding, human; design: key: band intensity 0 to 4+ vs IgG controls (low IgG = 1+, high = 3+)
Experimental: A. An SIA was done as follows. An H. pylori extract containing a mixture of antigens including type-common antigens was obtained from Bioseed, Inc., Hillsborough, Calif. Briefly, the extract was prepared from an H. pylori bacterium obtained from the American Type Culture Collection (ATCC) having an ATCC strain designation of ATCC 43504. The extract was prepared using detergent extraction and sonication.
The VacA and CagA type-specific antigens, described in Examples 1 and 2, respectively, were applied in discrete bands to nitrocellulose strips at concentrations of 1-2 μg/ml. The lysate including the type-common antigens was coated as another discrete band at a concentration of 0.5-1 μg/ml onto the same nitrocellulose strips. As internal controls, additional bands contained purified human IgG at a low (100-185 ng/ml) and high (500-925 ng/ml) concentration. Other strips were coated with the antigens and lysate as described above, however, on these strips, the lysate was first enhanced with the VacA and CagA antigens added to the lysate at a concentration of 0.5-1 μg/ml (VacA) and 0.5-μg/ml (CagA). FIG. 1 is a diagram of a nitrocellulose strip with the antigens as described above.
For the immunoblot assay, strips were processed in a batch fashion with 30 strips per batch. All steps were performed at room temperature. Each strip was numbered and then placed in a separate tube to which was added 1 ml of diluent (phosphate-buffered saline (PBS) with bovine protein stabilizers and detergents, 0.1% sodium azide and 0.05% gentamicin sulfate as preservatives) and 30 μl of a serum sample from an individual known to be infected with H. pylori Type I, suspected of being infected with H. pylori Type I or a control subject, was applied. The tubes were rocked gently for 4 h, the solution removed by aspiration, and 1 ml of fresh diluent was added to each tube. The tubes were rocked for 30 minutes, the solution removed by aspiration and 1 ml of wash buffer made from wash buffer concentrate (50×) (phosphate-buffered detergent solution with 0.01% thimerosal as a preservative) was added to each tube. The contents of each tube were emptied into a single wash vessel and the strips were washed by swirling for 20 seconds. The wash buffer was decanted and 30 ml of fresh buffer added and the process repeated. Residual solution was removed by aspiration and 20 ml of conjugate solution (peroxidase-labeled goat anti-human IgG (heavy and light chains), with bovine protein stabilizers, containing 0.01% thimerosal as a preservative) was added. The vessel was rotated at 110 rpm for 10 minutes, the conjugate solution was decanted and the wash step was repeated three times. Residual solution was again removed by aspiration and 20 ml of substrate/developer (4-chloro-1-napthol in methanol/phosphate-buffered hydrogen peroxide) added, followed by rotation for 15-20 minutes at 110 rpm. The solution was decanted and the strips were washed twice in distilled water. Developed strips were placed face up on absorbent paper and allowed to dry for 30 minutes in the dark. Strips were then read within 3 h of drying. The intensity of the color of the H. pylori antigen bands were assigned values ranging from −(0) to 4+using the following algorithm. The low IgG band is assigned a value of 1+, the high IgG band is assigned a value of 3+. The lysate and VacA and CagA bands are then scored from 0 to 4+according to how their band intensity compares to that of the IgG control bands.
Samples with any of the H. pylori antigen bands scoring 1+ or greater to the lysate band are considered to be positive for H. pylori infection. Reactivity of 1+ or greater to the lysate band, in addition to reactivity of 1+ or greater to the CagA and/or VacA band, is considered positive for H. pylori Type I infection. Samples showing no reactivity of 1+ or greater to any bands are considered negative. […]

antibodies to CagA = conditions: cited from earlier work
[4] = Responder to antibiotic therapy, Prebleed

Molecule	Response Rate Reported (H. pylori infection [1])	% Responders by SIA (H. pylori infection [2])	Responders (responders/tested) by SIA (H. pylori infection [2])	Band reactivity (intensity value), therapy monitoring ([3]; Non-Responder, 8 M)	Band reactivity (intensity value), therapy monitoring ([3]; Non-Responder, 16 M)	Band reactivity (intensity value), therapy monitoring ([3]; Non-Responder, Prebleed)	Band reactivity (intensity value), therapy monitoring [3, 4]	Band reactivity (intensity value), therapy monitoring ([3]; Responder, 1 M)	Band reactivity (intensity value), therapy monitoring ([3]; Responder, 3 M)	Band reactivity (intensity value), therapy monitoring ([3]; Responder, 6 M)	Band reactivity (intensity value), therapy monitoring ([3]; Responder, 9 M)	Band reactivity (intensity value), therapy monitoring ([3]; Responder, 12 M)	patients CagA seropositive (antibodies to CagA; patients suffering from gastric ulcer)	patients CagA seropositive (antibodies to CagA; patients with duodenal ulcer or duodenitis)
Cc1ncc([N+](=O)[O-])n1CCO [Single, Metronidazole]	19%	20%	1/5	–	–	–	–	–	–	–	–	–	–	–
VacA: Recombinant 71.2 kDa fusion: 154 aa human SOD, five aa linker, VacA Gly-311 through Ile-819 of H. pylori CCUG17874	–	–	–	2.49	2.10	2.54	0.31	0.26	0.33	0.29	0.21	0.18	–	–
CagA: Recombinant truncated CagA of 268 amino acids, 29.2 kDa, Glu-748 through Glu-1015, H. pylori strain Chetx-1 (protein, listed as Helicobacter pylori) MEFKNGKNKDFSKVTQAKSDLENSIKDVIFNQKITDKVDDLNQAVSVAKATGDFSRVEQALADLKNFSKEQLAQQAQKNESLNAGKKSEIYQSVKNGVNGTLVGNGLSQAEATTLSKNFSDIKKELNAKLFGNFNNNNNNGLKNSTEPIYAKVNKKKTGQVASPEEPIYTQVAKKVNAKIDRLNQIASGLGGVGKAAGFPLKRHDKVDDLSKVGRSVSPEPIYATIDDLGGPFPLKRHDKVDDLSKVGLSRNQELAQKIDNLNQAVSE	–	–	–	0.99	0.90	1.31	1.92	1.69	1.09	0.90	0.73	0.43	more than 70%	more than 95%
